# Reference: US5776742A, “Aldehyde dehydrogenase enzyme” (Roche Vitamins Inc., priority 1996, dated 1998)
# Values joined by “and” are separate entries in the source; they are usually repeats but may differ in a detail not shown here. Equal values may be shown once. “Also recorded” adds a separate entry of the source. Read-outs that look alike come from different tables or passages of the source.
# Legend:
# [1] = molecular target: T1, aldehyde dehydrogenase (ADH) (Ketogulonicigenium vulgare, UniProt F9Y7W8); test: Electron acceptor suitability for L-sorbosone oxidation; assay type: biochemical, Gluconobacter oxydans DSM 4025 (FERM BP-3812); settings: oxidation of L-sorbosone to 2-keto-L-gulonic acid
# T1 sequence (F9Y7W8 1-429): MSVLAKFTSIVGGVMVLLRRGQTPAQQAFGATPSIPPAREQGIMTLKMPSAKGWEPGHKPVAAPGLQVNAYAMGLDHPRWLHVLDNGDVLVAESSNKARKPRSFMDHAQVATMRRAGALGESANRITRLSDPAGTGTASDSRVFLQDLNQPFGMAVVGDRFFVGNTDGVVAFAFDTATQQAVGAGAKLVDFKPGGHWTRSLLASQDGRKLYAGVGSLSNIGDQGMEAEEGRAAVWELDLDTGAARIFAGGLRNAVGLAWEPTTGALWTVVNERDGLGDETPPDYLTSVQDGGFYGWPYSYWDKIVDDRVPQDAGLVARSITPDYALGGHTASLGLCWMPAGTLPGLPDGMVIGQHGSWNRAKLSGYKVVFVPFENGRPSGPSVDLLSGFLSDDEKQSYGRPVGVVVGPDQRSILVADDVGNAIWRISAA
# [2] = molecular target: T1, aldehyde dehydrogenase (ADH); test: Substrate specificity of the ADH; settings: for activity at 100000 µM: read-out: Relative activity (%)
# [3] = molecular target: T1, aldehyde dehydrogenase (ADH); test: Effects of metal ions, enzyme inhibitors and PQQ on the activity of ADH; assay type: biochemical, Gluconobacter oxydans DSM 4025 (FERM BP-3812); settings: for inhibition at 1870 µM: read-out: inhibition of the activity
# [4] = read-out: Relative activity (%)
# [5] = compound 0.950 mM, None = 100, read-out: Relative activity (%)
# [6] = compound 1.870 mM, None = 100, read-out: Relative activity (%)
compound,measurement,setting,value
O=C1C(Cl)=CC(=Nc2ccc(O)cc2)C=C1Cl,suitability as electron acceptor (in words),[1],oxidizes L-sorbosone to 2-keto-L-gulonic acid in the presence of electron acceptors
"O=CC(O)CO (racemic) [D,L-Glyceraldehyde]",activity at 100000 µM,[2],789%
same,"relative activity, times higher than that for L-sorbosone",[2]; substrate vs L-sorbosone,about 8 times
O.O.O.O.O=[N+]([O-])[O-].O=[N+]([O-])[O-].[Ca+2] [Ca(NO3)2.4H2 O],Relative activity (%),"[3]; metal 0.0387 mM, None = 100",294%
same,Relative activity (%),"[3]; metal 0.19 mM, None = 100",450%
[Ca+2].[Cl-].[Cl-] [CaCl2],Relative activity (%),"[3]; metal 0.0387 mM, None = 100",337%
[Ca+2] [Ca^2+],effect on the enzyme activity (in words),[3],Stimulator
O.O.O.O.O.O.[Cl][Cu][Cl] [CuCl2.6H2 O],Relative activity (%),"[3]; metal 0.0387 mM, None = 100",100%
same,Relative activity (%),"[3]; metal 0.19 mM, None = 100",50%
same,Relative activity (%),"[3]; metal 0.374 mM, None = 100",0%
O.O.O.O.O.O.O.O=S(=O)([O-])[O-].[Cu+2] [CuSO4.7H2 O],Relative activity (%),"[3]; metal 0.19 mM, None = 100",100%
same,Relative activity (%),"[3]; metal 0.374 mM, None = 100",61.9%
[Cu+2] [Cu^2+],effect on the enzyme activity (in words),[3],inhibited; also recorded: Inhibition
O=C(CO)[C@@H](O)[C@H](O)[C@H](O)CO [D-Fructose],activity at 100000 µM,[2],0%
O=C[C@H](O)[C@@H](O)[C@H](O)[C@H](O)CO [D-Glucose],"relative activity, times higher than that for L-sorbosone",[2],~2 times
same,activity at 100000 µM,[2],189%
O=CC(=O)[C@@H](O)[C@H](O)[C@H](O)CO [D-Glucosone],activity at 100000 µM,[2],77.8%
O=C[C@@H](O)[C@@H](O)[C@H](O)[C@H](O)CO [D-Mannose],activity at 100000 µM,[2],62.2%
O=C[C@H](O)[C@H](O)[C@H](O)CO [D-Ribose],activity at 100000 µM,[2],33.3%
OC[C@@H](O)[C@@H](O)[C@H](O)[C@@H](O)CO [D-Sorbitol],activity at 100000 µM,[2],0%
"O=C(O)CN(CCN(CC(=O)O)CC(=O)O)CC(=O)O [EDTA, ethylenediamine tetraacetic acid, reference compound]",effect on the enzyme activity (in words),[3],strongly inhibited; also recorded: Inhibition
same,activity at 194 µM,[3]; [4],3.8%
same,activity at 480 µM,[3]; [4],2.6%
same,activity at 980 µM,[3]; [4],1.6%
O.O=S(=O)([O-])[O-].O=S(=O)([O-])[O-].O=S(=O)([O-])[O-].[Fe+3].[Fe+3] [Fe2 (SO4)3.nH2 O],Relative activity (%),"[3]; metal 0.0387 mM, None = 100",100%
same,Relative activity (%),"[3]; metal 0.228 mM, None = 100",64.0%
same,Relative activity (%),"[3]; metal 0.374 mM, None = 100",44.9%
same,Relative activity (%),"[3]; metal 0.41 mM, None = 100",30.4%
[Fe+3] [Fe^3+],effect on the enzyme activity (in words),[3],inhibited
O=C(CO)[C@@H](O)[C@H](O)[C@@H](O)CO [L-Sorbose],activity at 100000 µM,[2],0%
O=CC(=O)[C@@H](O)[C@H](O)[C@@H](O)CO [L-Sorbosone],activity at 100000 µM,[2],100%
O.O.O.O.O.O.O.O=S(=O)([O-])[O-].[Mg+2] [MgSO4.7H2 O],Relative activity (%),"[3]; metal 0.19 mM, None = 100",79.3%
same,Relative activity (%),"[3]; metal 0.374 mM, None = 100",39.9%
[Mg+2] [Mg^2+],effect on the enzyme activity (in words),[3],inhibited
[Na+].[Na+].[O]=[Mo](=[O])([O-])[O-] [Mo^6+],effect on the enzyme activity (in words),[3],inhibited
"O=C(O)CI [Monoiodoacetate, reference compound]",activity at 950 µM,[3]; [4],93.7%
same,activity at 1870 µM,[3]; [4],87.3%
same,inhibition at 1870 µM,[3],13%
"CCN1C(=O)C=CC1=O [N-Ethylmaleimide, reference compound]",inhibition at 1870 µM,[3]; 1.87 mM,24%
same,activity at 950 µM,[3]; [5],94.1%
same,activity at 1870 µM,[3]; [6],76.5%
"O.O.O.O.O.O.O.O=[As]([O-])([O-])O.[Na+].[Na+] [Na2 HAsO4.7H2 O, reference compound]",Relative activity (%),"[3]; compound 0.950 mM, None = 100",100%
same,Relative activity (%),"[3]; compound 1.870 mM, None = 100",107.1%
O.O.[Na+].[Na+].[O]=[Mo](=[O])([O-])[O-] [Na2 MoO4.2H2 O],Relative activity (%),"[3]; metal 0.19 mM, None = 100",69.7%
same,Relative activity (%),"[3]; metal 0.374 mM, None = 100",42.1%
O.O.O.O.O.O.O=S(=O)([O-])[O-].[Ni+2] [NiSO4.6H2 O],Relative activity (%),"[3]; metal 0.375 mM, None = 100",17.6%
[Ni+2] [Ni^2+],effect on the enzyme activity (in words),[3],inhibited; also recorded: Inhibition
"O=C(O)c1cc(C(=O)O)c2c(n1)C(=O)C(=O)c1cc(C(=O)O)[nH]c1-2 [PQQ, pyrroloquinoline quinone, reference compound]",effect on the enzyme activity (in words),[3],Stimulator
same,activation at 10 µM,"[3]; 0.01 mM, read-out: stimulation of the activity",~50%
same,activity at 10 µM,"[3]; compound 0.01 mM, None = 100, read-out: Relative activity (%)",148%
"C=C[C@H]1C[N@@]2CC[C@H]1C[C@H]2[C@H](O)c1ccnc2ccc(OC)cc12 [Quinine, reference compound]",activity at 950 µM,[3]; [5],118%
same,activity at 1870 µM,[3]; [6],112%
"[F-].[Na+] [Sodium fluoride, reference compound]",Relative activity (%),[3],100% and 105.8%
"O=C(O)CF [Sodium fluoroacetate, reference compound]",activity at 950 µM,[3]; [5],118%
same,activity at 1870 µM,[3]; [6],127%
[Cl][Ti]([Cl])([Cl])[Cl] [TiCl4],Relative activity (%),"[3]; metal 0.19 mM, None = 100",100%
same,Relative activity (%),"[3]; metal 0.374 mM, None = 100",80%
[Ti+4] [Ti^4+],effect on the enzyme activity (in words),[3],inhibited
[Cl-].[Cl-].[Zn+2] [ZnCl2],Relative activity (%),"[3]; metal 0.19 mM, None = 100",36.1%
same,Relative activity (%),"[3]; metal 0.374 mM, None = 100",21.1%
O.O.O.O.O.O.O.O=S(=O)([O-])[O-].[Zn+2] [ZnSO4.7H2 O],Relative activity (%),"[3]; metal 0.374 mM, None = 100",32.6%
[Zn+2] [Zn^2+],effect on the enzyme activity (in words),[3],inhibited; also recorded: Inhibition
CC(C)O [iso-Propanol],activity at 100000 µM,[2],0%
CCCO [n-Propanol],activity at 100000 µM,[2],0%
NC(=O)c1ccc[n+]([C@@H]2O[C@H](COP(=O)([O-])OP(=O)(O)OC[C@H]3O[C@@H](n4cnc5c(N)ncnc54)[C@H](OP(=O)(O)O)[C@@H]3O)[C@@H](O)[C@H]2O)c1 [nicotine amide adenine dinucleotide phosphate],suitability as electron acceptor (in words),[1],not suitable
NC(=O)c1ccc[n+]([C@@H]2O[C@H](COP(=O)([O-])OP(=O)(O)OC[C@H]3O[C@@H](n4cnc5c(N)ncnc54)[C@H](O)[C@@H]3O)[C@@H](O)[C@H]2O)c1 [nicotine amide adenine dinucleotide],suitability as electron acceptor (in words),[1],not suitable
O=O [oxygen],suitability as electron acceptor (in words),[1],does not work; also recorded: not suitable
C[n+]1c2ccccc2nc2ccccc21 [phenazine methosulfate],suitability as electron acceptor (in words),[1],oxidizes L-sorbosone to 2-keto-L-gulonic acid in the presence of electron acceptors
cytochrome c,suitability as electron acceptor (in words),[1],oxidizes L-sorbosone to 2-keto-L-gulonic acid in the presence of electron acceptors
